One block for each compound: values may come before it.
What was measured:
[1] = tested on: MSU-induced gouty arthritis; assay: Pain value in rats with gouty arthritis (electronic Von Frey pain threshold detector); assay type: in vivo, Male Wistar rats
Description: The rats with gouty arthritis were placed in a metabolic cage, and the palm center of the left foot of each rat was irritated with an electronic Von Frey pain threshold detector. The maximum stress value was recorded when each rat withdrew its foot, and the value was the pain value of that rat.

[2] = target: T1, human urate transporter 1 (hURAT1) (Homo sapiens, UniProt Q96S37); assay: Uptake of 14C-labeled uric acid in hURAT1 transfected cells; assay type: cell-based; conditions: 14C uric acid uptake, hURAT1-transfected HEK-293T cells, 5 min at 37° C.; read-out: IC50 (μM), inhibition of hURAT1 activity
T1 construct: expressed in transfected cells; host or cells: HEK-293T
T1 sequence (Q96S37 1-553): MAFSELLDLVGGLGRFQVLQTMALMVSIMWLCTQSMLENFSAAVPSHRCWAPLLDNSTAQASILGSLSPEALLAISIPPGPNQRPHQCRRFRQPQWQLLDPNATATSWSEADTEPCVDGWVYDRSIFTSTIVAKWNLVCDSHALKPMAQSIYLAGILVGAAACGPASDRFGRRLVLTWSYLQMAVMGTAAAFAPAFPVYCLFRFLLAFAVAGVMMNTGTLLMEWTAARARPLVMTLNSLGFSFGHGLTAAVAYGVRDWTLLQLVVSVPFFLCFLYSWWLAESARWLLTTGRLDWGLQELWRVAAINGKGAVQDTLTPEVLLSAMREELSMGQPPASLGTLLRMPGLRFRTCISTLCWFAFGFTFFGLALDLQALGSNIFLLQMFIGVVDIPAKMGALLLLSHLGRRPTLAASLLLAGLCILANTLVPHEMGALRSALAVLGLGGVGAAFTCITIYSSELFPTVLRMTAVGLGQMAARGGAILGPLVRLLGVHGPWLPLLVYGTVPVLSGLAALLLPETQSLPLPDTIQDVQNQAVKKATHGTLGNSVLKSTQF

[3] = tested on: serum uric acid; assay: Uric acid-lowering experiment in cynomolgus monkeys; assay type: in vivo; set-up: Reduction rate of serum uric acid: concentration or dose not given beside the values; conditions: for Reduction rate of serum uric acid / Content of serum uric acid: intravenous; for Reduction rate of serum uric acid: 3 h after administration vs before administration; for Content of serum uric acid: 3 h after administration
Description: The experiment was done by reference to Komoriya K, Osada Y, Hasegawa M, Horiuchi H, Kondo S, Couch R C, Griffin T B. Hypouricemic effect of allopurinol and the novel xanthine oxidase inhibitor TEI-6720 in chimpanzees. Eur J Pharmacol. 1993 Dec. 21; 250(3): 455-60.
Each compound was tested in three non-naïve cynomolgus monkeys (1 #, 2 # and 3 #), wherein the monkeys were administered with test samples by intravenous injection. Blood was collected from the vein before administration and 1 h, 3 h, 6 h and 24 h after administration. The blood was left still at room temperature. The serum was collected by centrifugation. The content of uric acid in serum was measured. Reduction rate of serum uric acid=(average uric acid content before administration−average uric acid content after administration)/average uric acid content before administration*100%.

[4] = Pharmacokinetics experiment in cynomolgus monkeys, intravenous; assay type: in vivo, cynomolgus monkeys (Macaca fascicularis); conditions: 5 mg/kg, Mean ± SD, n = 3
Description: Three non-naïve cynomolgus monkeys were administered with test compounds A, B and D at a dose of 5 mg/kg by intravenous injection and with test compound C at a dose of 3 mg/kg by intravenous injection, with one compound being tested at a time. Blood was collected from the vein before administration and 1 h, 3 h, 6 h and 24 h after administration, and plasma was isolated. The plasma was analyzed by a 4000 Q Trap LC-MS/MS instrument. The concentrations of the test samples were output by Analyst 1.6.1 from AB Company. The parameters ( ) such as the mean, standard deviation, and coefficient of variation were calculated using Microsoft Excel, wherein the values directly output by Analyst 1.6.1 requires no calculation. PK parameters were calculated using Pharsight Phoenix 6.2 software (NCA model).

[5] = tested on: MSU-induced gouty arthritis; assay: MSU-induced gouty arthritis, toe volume; assay type: in vivo, Male Wistar rats; conditions: for Inhibition of toe volume change (%): vs model group; for effect on increase of the toe volumes in the test rats (in words): compared with the model group
Description: The experiment was done by reference to Hsin-Pai Lee, Shi-Ying Huang, Yen-You Lin. Soft Coral-Derived Lemnalol Alleviates Monosodium Urate-Induced Gouty Arthritis in Rats by Inhibiting Leukocyte Infiltration and iNOS, COX-2 and c-Fos Protein Expression. […] 2013, 11, 99-113.
One gram of uric acid was weighed, introduced into 200 mL of boiling water and heated. Then, NaOH (2 mol/L) was added until pH reached 9. The solution became clear, and was cooled at room temperature and then left still overnight. MSU was obtained after filtration, which was dried at 60° C. for 24 h and then sterilized at a high temperature of 180° C.
(§1) The toe volumes of the rats were measured one day prior to the experiment. The rats were administered with the solvent by subcutaneous injection in the model group at a dose of 5 mL/kg, while the rats were administered with test samples by subcutaneous injection in administration groups at a dose of 5 mg/kg. Rats were anesthetized immediately after administration and were injected with 0.09 mL of MSU suspension into the joint cavity of the left ankle. The volume of the left toe was measured in rats 9 h after the injection of MSU into the ankle joint cavity.
as §1, with “dose of 15 mL/kg, while” for “dose of 5 mL/kg, while”, “dose of 15 mg/kg or 10 mg/kg. Rats” for “dose of 5 mg/kg. Rats”
The toe volumes of rats were measured one day prior to the experiment. The rats were administered with the solvent by subcutaneous injection in the model group at a dose of 15 mL/kg, while the rats were administered with the test sample by subcutaneous injection in administration group at a dose of 15 mg/kg. Rats were anesthetized immediately after administration and were injected with 0.09 mL of MSU suspension into the joint cavity of the left ankle. The volume of the left toe in each rat was measured 9 h after the injection of MSU into the ankle joint cavity.

[6] = Uric acid-lowering test in monkeys having hyperuricemia (UA subcutaneous injection); assay type: in vivo, cynomolgus monkeys; conditions: cynomolgus monkey, serum, sc; uric acid (UA) by subcutaneous injection at the nape, cynomolgus monkeys from the model group; read-out: half-life (t½z) (converted)
Description: The experiment was conducted by reference to Komoriya K, Osada Y, Hasegawa M, Horiuchi H, Kondo S, Couch R C, Griffin T B. Hypouricemic effect of allopurinol and the novel xanthine oxidase inhibitor TEI-6720 in chimpanzees. Eur J Pharmacol. 1993 Dec. 21; 250(3): 455-60.
In the Model group, three non-naïve cynomolgus monkeys (1 #, 2 # and 3 #) were administered with UA by subcutaneous injection at the nape. Blood was collected from the vein before UA administration and 0.5 h, 1 h, 2 h, 4 h, 6 h and 24 h after UA administration. The blood was left still at room temperature. The serum was collected by centrifugation. The content of serum uric acid was measured.
In the Administration group, three non-naïve cynomolgus monkeys (1 #, 2 # and 3 #) were administered with the test sample by intravenous injection after 2 weeks of clearance. Blood was collected from the vein before administration and 2 h after administration of test sample. Then, the monkeys were administered with UA by subcutaneous injection at the nape and blood was collected from the vein 1 h, 2 h and 4 h after the UA administration. The blood was left still at room temperature. The serum was collected by centrifugation. The content of serum uric acid was measured. Reduction rate of serum uric acid in healthy monkeys administered with test sample=(average uric acid content before administration−average uric acid content 2 h after administration of test sample)/average uric acid content before administration*100%, Reduction rate of serum uric acid in monkeys having hyperuricemia after administration of test sample=(uric acid content after UA administration in the model group−uric acid content after UA administration in the administration group)/uric acid content in the model group*(100%).
That was, the samples were collected before administration, 2 h after administration of test sample and 1 h, 2 h and 4 h after UA administration for determination of the serum uric acid content. The contents of serum uric acid in the model group and the administration group and the reduction rates of serum uric acid were shown in the following Tables 3-1, 3-2 and 3-3, respectively.

[7] = Example 6, 15 mg/kg subcutaneous, 9 h after MSU

SMILES: CCCCn1c(=O)[nH]c(=O)c2[nH]c(Cl)nc21 [Compound B, 8-chloro-3-butyl-3,7-dihydro-1H-purine-2,6-dione]
Pain value ([1]; Example 6, 15 mg/kg subcutaneous, left foot, Von Frey): 37.2 g | effect on pain in the test rats (in words) ([1]; Example 6, compared with the model group): significantly reduce | IC50 [2]: 3.02 µM | effect on serum uric acid levels in the test monkeys (in words) ([3]; compared to the levels measured before administration): significantly reduce | Reduction rate of serum uric acid ([3]; animal 1#): 17.5% | Reduction rate of serum uric acid ([3]; animal 2#): 9.2% | Reduction rate of serum uric acid ([3]; mean): 14.1% | Content of serum uric acid ([3]; animal 1#): 69.1 µmol/L | Content of serum uric acid ([3]; animal 2#): 52.3 µmol/L | Content of serum uric acid ([3]; mean): 60.7 µmol/L | t1/2z [4]: 163 ± 21 min | Change of toe volume ([5]; Example 4, 5 mg/kg subcutaneous, 9 h after MSU injection into left ankle joint cavity): 0.349 mL | Inhibition of toe volume change (%) ([5]; Example 4, 5 mg/kg subcutaneous, 9 h after MSU): 30.8% | effect on increase of the toe volumes in the test rats (in words) ([5]; Example 4, 5 mg/kg): significantly inhibit | Toe volume change [5, 7]: 0.229 mL | Inhibition of toe volume change (%) [5, 7]: 49.1% | effect on increase of the toe volumes in the test rats (in words) ([5]; Example 6, 15 mg/kg): significantly inhibit

half-life [6]: 32.4 min
SMILES: O=c1[nH]c(=O)c2[nH]c(=O)[nH]c2[nH]1 [uric acid (UA), uric acid]
